Target: T1, glu-Pg (Homo sapiens, UniProt P00747)
T1 construct: Glu-Pg, uPA, tPA, fibrinogen, and chromogenic substrate for Pn were purchased from Molecular Innovations (Novi, Mich.); purchased Molecular Innovations (Novi, Mich.)
Experiment: Reaction of MG-modified Pg with activating enzymes (STK, tPA, uPA), SDS-PAGE and silver staining
Format: biochemical
Conditions: for Pn heavy and light chain bands versus unmodified gel: MG-modified Pg, higher concentration of MG, up to 90 minutes
Experimental: Physiologically relevant concentrations (Chaplen et al., 1998, Ahmed et al., 2002) of MG were utilized for all LC-MS/MS, silver stain and enzyme inhibition analyses of Pg. glu-Pg (10 μg) was incubated with MG (1-500 μM) at 37° C. for 24 Hrs. Samples for STK assay were further processed before being resolved on a 12% SDS-PAGE gel following removal from 37° C. oven.
Upon removal from the 37° C. oven, Pg was buffer exchanged in a 3-kDa spin-filter (Amicon YM-3; Millipore)) to ensure the removal of MG from the sample. Following centrifugation, the volume of each sample was brought to 150 μL, and divided into five 30 μL samples for different incubations. STK (3U), tPA (100 nM) or uPA (100 nM) was used per sample. STK, tPA or uPA was incubated with Pg for 0, 5, 15, 30, 60, or 90 min. At the conclusion of the enzyme incubation, samples were denatured with 5% BME and heated for 5 minutes at 100° C. on a heat block prior to being resolved on a 12% SDS-PAGE gel.
Gels were stained using a modified version of the method from (Blum et al., 1987). Gel was fixed overnight in a solution of 50% MeOH, 12% glacial acetic acid, and 0.0185% formaldehyde. The gel was washed 2×20 min with 50% EtOH followed by 20 minutes with 30% EtOH. The gel was subjected to a pretreatment solution of 0.2 mg/ml of sodium thiosulfate (Na2S2O3) for 1 minute and was rinsed 3×20 sec with MilliQ H2O. […] Following two 20-second MilliQ H2O washes, the gel was immediately developed with a solution of 60 mg/ml Na2CO3, 4 μg/ml sodium thiosulfate, and 0.0185% formaldehyde until protein bands were visible. Upon acceptable staining progression, the gel was rinsed twice for 2 min with MilliQ H2O before the reaction was stopped with a solution of 50% MeOH and 12% glacial acetic acid. Gel was washed and stored in 50% MeOH. Gel was imaged with a ChemiDoc XRS System (BioRad).

T1 sequence (P00747 20-810 limits assumed): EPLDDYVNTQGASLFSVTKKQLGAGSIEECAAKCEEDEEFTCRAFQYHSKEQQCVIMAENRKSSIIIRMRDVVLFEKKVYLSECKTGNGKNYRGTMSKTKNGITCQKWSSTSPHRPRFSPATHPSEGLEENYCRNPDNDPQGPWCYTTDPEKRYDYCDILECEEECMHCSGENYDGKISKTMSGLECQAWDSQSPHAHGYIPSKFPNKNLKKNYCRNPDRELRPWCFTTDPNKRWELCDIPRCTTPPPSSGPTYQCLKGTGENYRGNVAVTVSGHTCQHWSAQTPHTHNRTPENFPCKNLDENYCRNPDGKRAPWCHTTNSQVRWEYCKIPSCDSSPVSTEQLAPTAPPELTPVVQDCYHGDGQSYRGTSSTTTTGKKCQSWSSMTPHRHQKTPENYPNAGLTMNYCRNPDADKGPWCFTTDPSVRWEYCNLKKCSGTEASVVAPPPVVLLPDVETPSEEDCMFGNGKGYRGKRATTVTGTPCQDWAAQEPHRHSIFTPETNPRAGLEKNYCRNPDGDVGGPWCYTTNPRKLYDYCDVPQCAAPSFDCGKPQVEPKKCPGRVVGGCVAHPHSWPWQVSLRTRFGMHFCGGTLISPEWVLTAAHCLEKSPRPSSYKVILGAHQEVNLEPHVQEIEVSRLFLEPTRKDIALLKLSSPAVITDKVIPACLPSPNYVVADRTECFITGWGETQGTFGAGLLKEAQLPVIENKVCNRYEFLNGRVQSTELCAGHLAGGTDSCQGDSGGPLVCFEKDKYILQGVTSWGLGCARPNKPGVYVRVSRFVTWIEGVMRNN

Question: `CC(=O)C=O` [MG, Methylglyoxal] was tested. Which “Activation of Pg by STK (cleavage products on silver-stained gel)” value (24-hr 100 μM MG-modified glu-Pg, STK 0 to 60 min) did it give?
Answer: Its value is “inhibited”.

Question: What about the “Pn heavy and light chain bands versus unmodified gel” value (tPA) of the same molecule?
Answer: The value was “lesser amounts”.

Question: What about the “Pn heavy and light chain bands versus unmodified gel” value (uPA) of the same molecule?
Answer: Its value is “lesser amounts”.

Reference: patent US20190137505A1 (THE ARIZONA BOARD OF REGENTS ON BEHALF OF THE UNIVERSITY OF …, priority 2015, published 2019)
